Patent US20220315624A1, “THIOSTREPTON ANALOGS AND METHODS OF MAKING AND USING SAME” (YALE UNIVERSITY, priority 2019, published 2022)
Converted amounts (≈) assume the structure as drawn. Like-named read-outs stand apart in the source and are kept apart here.

Experiments:
[1] = Aqueous solubility analysis in MOPS buffer; assay type: physicochemical; settings: thermodynamic from solid, after 24 hours in 10 mM aqueous MOPS buffer, pH 7.2
Protocol: A 2 dram vial was loaded with ˜0.5 mg of a thiostrepton derivative and suspended in ˜4 mL of aqueous 10 mM MOPS buffer (pKa 7.2). The suspension was stirred vigorously for 24 h to ensure equilibration, then filtered through a […] centrifuge filtration unit. A 3.0 mL aliquot was concentrated, and the dried residue was diluted with 0.30 mL of 1:1 1,4-dioxane/H2O (10× original concentration necessitated by detection limits). The total UV absorbance (200-300 nm) was measured in triplicate by UPLC runs with a photodiode array detector. A calibration curve for each compound was created using data points from 3 trials each of concentrations in 1:1 1,4-dioxane/H2O ranging from […]. These concentrations were plotted against their respective average absorbances. The experimental concentration of each compound was calculated by dividing the found μg/mL value by the residue concentration factor of 10 to yield the actual solubility value.

[2] = tested on: S. aureus ATCC 29213 MSSA; experiment: MIC broth microdilution; assay type: cell-based; settings: Staphylococcus aureus
Protocol: (§1) Twenty-four test agents were shipped to Micromyx and stored at −20° C. until assayed. The compounds were dissolved in 100% DMSO at 6.46 mg/mL prior to testing. Comparator drugs were supplied by Micromyx and were handled as described below:
(§2) The test organisms for the assay were recent clinical isolates or reference strains acquired from the American Type Culture Collection (ATCC; Manassas, Va.). Upon receipt, the isolates were streaked onto Trypticase Soy Agar II+5% sheep blood (TSAB). Colonies were harvested from the plates and a cell suspension was prepared in Trypticase Soy Broth containing cryoprotectant. Aliquots were then frozen at −80° C. Prior to the assay, the frozen seeds of all bacterial isolates to be tested were thawed and streaked for isolation onto TSAB (BD/BBL, Sparks, Md.; Lot No. 9011894), and were incubated overnight at 35° C.
(§3) The test medium for all isolates was cation-adjusted Mueller Hinton broth (CAMHB; BD/BBL; Lot No. 8190586). CAMHB (Cation Adjusted Mueller Hinton Broth) was supplemented with 3% (v/v) lysed horse blood (LHB; Hemostat, Dixon, Calif.; Lot No. 474990) for the testing of streptococci.
(§4) MIC values were determined using a broth microdilution method as recommended by CLSI. Automated liquid handlers (Multidrop 384, Labsystems, Helsinki, Finland; Biomek 2000 and Biomek F/X, Beckman Coulter, Fullerton Calif.) were used to conduct serial dilutions and make liquid transfers.
(§5) The wells of standard 96-well microdilution plates (Costar 3795, Corning Inc., Corning, N.Y.) were filled with 150 μL of the appropriate diluent in columns 2-12 on the Multidrop 384 (DMSO for the thiostrepton analogs, deionized H2O for vancomycin and ceftazidime). These plates were used to prepare the drug “mother plate” which provided the serial drug dilutions for the replicate “daughter plates”. The compounds (300 μL) were dispensed at 101× the highest concentration to be tested into the appropriate row of the “mother plate”. The Biomek 2000 was used to transfer 150 μL of each stock solution from the wells in Column 1 of the mother plate to make ten subsequent 2-fold serial dilutions. The wells of Column 12 contained no drug and served as the organism growth control wells. The daughter plates were loaded with 190 μL of test medium using the Multidrop 384.
(§6) The daughter plates were prepared on the Biomek F/X instrument which transferred […] of drug solution from each well of the mother plate to each corresponding well of each daughter plate in a single step. The wells of the daughter plates ultimately contained 190 μL of media, 2 μL of drug solution, and 10 μL of inoculum prepared as described below. The final concentration of DMSO (if used as a solvent) in the test well was 1%.
(§7) A standardized inoculum of each organism was prepared per CLSI methods. A suspension of organisms from a fresh plate was prepared in CAMHB to equal the turbidity of a 0.5 McFarland standard. The suspensions were diluted 1:20 in CAMHB, or in the case of streptococci CAMHB with LHB. The inoculum for each organism was dispensed into sterile reservoirs divided by length (Beckman Coulter), and the Biomek 2000 was used to inoculate the plates. Daughter plates were placed on the Biomek 2000 work surface reversed so that inoculation took place from low to high drug concentration. The Biomek 2000 delivered 10 μL of standardized inoculum into each well. These dilutions yielded a final cell concentration in the daughter plates of approximately 5.0×10^5 CFU/mL.
(§8) Plates were stacked 3 high, covered with a lid on the top plate, placed in plastic bags, and incubated at 35° C. for 16-20 hr for all organisms except streptococci which were incubated for 20-24 hr. Following incubation, the microplates were removed from the incubator and viewed from the bottom using a plate viewer. The MIC was read and recorded as the lowest concentration of drug that inhibited visible growth of the organism. […]

[3] = tested on: E. faecalis ATCC 29212 VSE; experiment: MIC broth microdilution; assay type: cell-based; settings: Enterococcus faecalis, ATCC29212
Protocol: as §1, §2, §3, §4, §5, §6, §7, §8

E. faecalis MMX 486 VRE = experiment: MIC broth microdilution; assay type: cell-based; settings: Enterococcus faecalis
Protocol: as §1, §2, §3, §4, §5, §6, §7, §8

S. aureus MMX 8088 MRSA = experiment: MIC broth microdilution; assay type: cell-based; settings: Staphylococcus aureus
Protocol: as §1, §2, §3, §4, §5, §6, §7, §8

E. faecium MMX 708 VSE = experiment: MIC broth microdilution; assay type: cell-based; settings: Enterococcus faecium, MMX708VSE
Protocol: as §1, §2, §3, §4, §5, §6, §7, §8

E. coli ATCC 25922 = experiment: MIC broth microdilution; assay type: cell-based; settings: Escherichia coli, ATCC25922
Protocol: as §1, §2, §3, §4, §5, §6, §7, §8

E. faecium MMX 485 VRE = experiment: MIC broth microdilution; assay type: cell-based; settings: Enterococcus faecium
Protocol: as §1, §2, §3, §4, §5, §6, §7, §8

[4] = tested on: S. pneumoniae ATCC 49619 PISP; experiment: MIC broth microdilution; assay type: cell-based; settings: Streptococcus pneumoniae, ATCC49619, 20 h
Protocol: as §1, §2, §3, §4, §5, §6, §7, §8

S. pyogenes ATCC 19615 = experiment: MIC broth microdilution; assay type: cell-based; settings: Streptococcus pyogenes, ATCC19615, 20 h
Protocol: as §1, §2, §3, §4, §5, §6, §7, §8

[5] = S. aureus ATCC 29213 MSSA, CAMHB, read-out: MIC
[6] = E. faecalis ATCC 29212 VSE, CAMHB, read-out: MIC
[7] = E. faecalis MMX 486 VRE, CAMHB, read-out: MIC
[8] = S. aureus MMX 8088 MRSA, CAMHB, read-out: MIC
[9] = E. faecium MMX 708 VSE, CAMHB, read-out: MIC
[10] = E. coli ATCC 25922, CAMHB, read-out: MIC
[11] = E. faecium MMX 485 VRE, CAMHB, read-out: MIC
[12] = S. pneumoniae ATCC 49619 PISP, CAMHB with 3% lysed horse blood, read-out: MIC
[13] = S. pyogenes ATCC 19615, CAMHB with 3% lysed horse blood, read-out: MIC

SMILES	solubility at 24 h [1] [µg/mL]	MIC [2] [µg/mL]	MIC [3] [µg/mL]	MIC (E. faecalis MMX 486 VRE; VRE) [µg/mL]	MIC (S. aureus MMX 8088 MRSA; MRSA) [µg/mL]	MIC (E. faecium MMX 708 VSE) [µg/mL]	MIC (E. coli ATCC 25922) [µg/mL]	MIC (E. faecium MMX 485 VRE; VRE) [µg/mL]	MIC [4] [µg/mL]	MIC (S. pyogenes ATCC 19615) [µg/mL]	solubility at 24 h ([1]; aqueous 10 mM MOPS buffer) [µg/mL]	MIC [2, 5] [µg/mL]	MIC [3, 6] [µg/mL]	MIC (E. faecalis MMX 486 VRE; [7]) [µg/mL]	MIC (S. aureus MMX 8088 MRSA; [8]) [µg/mL]	MIC (E. faecium MMX 708 VSE; [9]) [µg/mL]	MIC (E. coli ATCC 25922; [10]) [µg/mL]	MIC (E. faecium MMX 485 VRE; [11]) [µg/mL]	MIC [4, 12] [µg/mL]	MIC (S. pyogenes ATCC 19615; [13]) [µg/mL]
C=C(NC(=O)c1csc(C2=N[C@@H]3c4csc(n4)[C@H]4NC(=O)c5csc(n5)[C@H]([C@](C)(O)[C@@H](C)O)NC(=O)C5CSC(=N5)/C(=C/C)NC(=O)[C@H]([C@@H](C)O)NC(=O)c5csc(n5)[C@]3(CC2)NC(=O)[C@H](C)NC(=O)C(=C)NC(=O)[C@H](C)NC(=O)[C@H]([C@@H](C)CC)N[C@@H]2C=Cc3c([C@H](C)O)cc(nc3[C@H]2O)C(=O)O[C@@H]4C)n1)C(=O)NC(=CNC(=O)c1ccccc1)C(N)=O [RJS-02]	< 1	1 (≈ 0.561 µM)	1 (≈ 0.561 µM)	1 (≈ 0.561 µM)	2 (≈ 1.12 µM)	0.5 (≈ 0.28 µM)	> 64	0.5 (≈ 0.28 µM)	0.008 (≈ 0.00448 µM)	0.002 (≈ 0.00112 µM)										
C=C(NC(=O)c1csc(C2=N[C@@H]3c4csc(n4)[C@H]4NC(=O)c5csc(n5)[C@H]([C@](C)(O)[C@@H](C)O)NC(=O)C5CSC(=N5)/C(=C/C)NC(=O)[C@H]([C@@H](C)O)NC(=O)c5csc(n5)[C@]3(CC2)NC(=O)[C@H](C)NC(=O)C(=C)NC(=O)[C@H](C)NC(=O)[C@H]([C@@H](C)CC)N[C@@H]2C=Cc3c([C@H](C)O)cc(nc3[C@H]2O)C(=O)O[C@@H]4C)n1)C(=O)NC(=CNC(=O)c1cccc(C(C)=O)c1)C(N)=O [RJS-05]											1.1 (≈ 0.602 µM)	1 (≈ 0.548 µM)	1 (≈ 0.548 µM)	1 (≈ 0.548 µM)	2 (≈ 1.1 µM)	1 (≈ 0.548 µM)	> 64	0.5 (≈ 0.274 µM)	0.004 (≈ 0.00219 µM)	0.004 (≈ 0.00219 µM)
C=C(NC(=O)c1csc(C2=N[C@@H]3c4csc(n4)[C@H]4NC(=O)c5csc(n5)[C@H]([C@](C)(O)[C@@H](C)O)NC(=O)C5CSC(=N5)/C(=C/C)NC(=O)[C@H]([C@@H](C)O)NC(=O)c5csc(n5)[C@]3(CC2)NC(=O)[C@H](C)NC(=O)C(=C)NC(=O)[C@H](C)NC(=O)[C@H]([C@@H](C)CC)N[C@@H]2C=Cc3c([C@H](C)O)cc(nc3[C@H]2O)C(=O)O[C@@H]4C)n1)C(=O)NC(=CNC(=O)COC)C(N)=O [RJS-06]											28 (≈ 16 µM)	0.5 (≈ 0.285 µM)	1 (≈ 0.571 µM)	1 (≈ 0.571 µM)	1 (≈ 0.571 µM)	1 (≈ 0.571 µM)	> 64	0.5 (≈ 0.285 µM)	0.015 (≈ 0.00856 µM)	0.008 (≈ 0.00457 µM)
